In patent US10385103B2, “Cell-permeable (ICP)-SOCS3 recombinant protein and uses thereof” (CELLIVERY THERAPEUTICS, INC., priority 2014, dated 2019):
Entries after “also recorded” stand apart in the source; their conditions may differ.

Key:
[1] = test system: HepG2 cells; assay: Induction of apoptosis, Annexin V/7-AAD staining; format: cell-based, human
Experimental: (§1) AGS cells (gastric carcinoma cell line) (American Type Culture Collection; ATCC) were seeded in a 12-well plate at a density of 1×10^5 cells/well, and then treated with 10 uM of aMTD/SD-fused SOCS3 for 14 hours. Cancer cell death was analyzed by Annexin V analysis. Annexin V/7-Aminoactinomycin D (7-AAD) staining was performed using flow cytometry according to the manufacturer's guidelines (BD Pharmingen, San Diego, Calif., USA). Briefly, cells were washed three times with ice-cold PBS. The cells were then resuspended in 100 μl of binding buffer and incubated with 1 μl of 7-AAD and 1 μl of annexin V-PE for 30 min in the dark at 37° C. Flow cytometric analysis was immediately performed using a guava easyCyte™ 8 Instrument (Merck Millipore, Darmstadt, Germany).
Annexin V/7-Aminoactinomycin D (7-AAD) staining was performed using flow cytometry according to the manufacturer's guidelines (BD Pharmingen, San Diego, Calif., USA). Briefly, 1×10^6 cells were washed three times with ice-cold PBS. The cells were then resuspended in 100 μl of binding buffer and incubated with 1 μl of 7-AAD and 1 μl of […] for 30 min in the dark at 4° C. Flow cytometric analysis was immediately performed using a guava easyCyte™ 8 Instrument (Merck Millipore, Darmstadt, Germany). In this regard, Cisplatin® (IC50: 30 μM) was used as a reference drug.
(§2) The effect of inducing apoptosis of Chang liver cells was measured in the same manner as in Example 11-2, except that as target cell lines, normal Chang liver cells and hepatocellular carcinoma cell lines, Hep3B, HepG2, Huh7, and SK-HEP-1 were used, and as a reference drug, 5-FU® (IC50: 40 μM) was used.

[2] = test system: Hep3B cells; assay: Induction of apoptosis, Annexin V/7-AAD staining; format: cell-based, human; details: example 20-2
Experimental: as §1, §2

[3] = test system: Huh7 cells; assay: Induction of apoptosis, Annexin V/7-AAD staining; format: cell-based, human; details: example 20-2
Experimental: as §1, §2

[4] = test system: SK-Hep-1 cells; assay: Induction of apoptosis, Annexin V/7-AAD staining; format: cell-based, human; details: example 20-2
Experimental: as §1, §2

[5] = test system: HCCs (Hep3B, HepG2, Huh7 and SK-HEP-1); assay: Inhibition of cell cycle progression (PI staining, flow cytometry); format: cell-based, human; details: reference drugs
Experimental: To further determine the effect of iCP-SOCS3 on the tumorigenicity of hepatocellular carcinoma cells, we subsequently investigated whether iCP-SOCS3 regulates cell cycle progression in HCCs (Hep3B, HepG2, Huh7 and SK-HEP-1).
HCCs and normal cells were treated with 10 uM protein (Non-CP-SOCS3 (HS3B) and iCP-SOSC3 (HM165S3B)) for 8 hrs. After the treatment, cells were washed twice with cold PBS and re-suspended in 1 ml cold PBS, fixed in cold 70% ethanol, washed with cold PBS twice and re-suspended in PI master mix (PI 10 ug/ml (SIGMA, USA), 50 ug/ml RNase A (Invitrogen, USA) in staining buffer) at a final cell density of 2×10^5 cell/ml. The cell mixtures were incubated 30 min in the dark at 4° C. Flow cytometric analysis was immediately performed using a guava easyCyte™ 8 Instrument (Merck Millipore, Darmstadt, Germany).

[6] = read-out: IC50 (stated for reference drug); cited from earlier work
[7] = test system: Huh7 cells; assay: Induction of apoptosis, TUNEL assay; format: cell-based, human; details: 10 μM, 24 hr, 2% fetal bovine serum
Experimental: Apoptotic cells were analyzed using terminal dUTP nick-end labeling (TUNEL) assay with In Situ Cell Death Detection kit TMR red (Roche, 4056 Basel, Switzerland). Cells were treated for 24 hr with 10 μM HS3B or HM165S3B proteins with 2% fetal bovine serum and apoptotic cells were visualized by TUNEL staining. Treated cells were washed with cold PBS two times, fixed in 4% paraformaldehyde (PFA, Junsei, Tokyo, Japan) for 1 hr at room temperature, and incubated in 0.1% Triton X-100 for 2 min on the ice. Cells were washed with cold PBS twice, and treated TUNEL reaction mixture for 1 hr at 37° C. in dark, washed cold PBS three times and observed by fluorescence microscopy (Nikon, Tokyo, Japan). Cisplatin® (IC50: 30 μM) was used for reference drug.

[8] = test system: HepG2 tumor; assay: Anti-tumor activity in cell-derived xenograft model; details: iCP-SOCS3 IV 50 mg/kg every day; Cisplatin IP 4 mg/kg twice a week; 3 weeks
Experimental: Female Balb/c^nu/nu mice (5-week-old, Doo-Yeol Biotech Co. Ltd. Korea) were subcutaneously implanted with Hep3B2.1-7 tumor block (1 mm^3) into the left back side of the mouse. […] Tumor size was monitored by measuring the longest (length) and shortest dimensions (width) once a day with a dial caliper, and tumor volume was calculated as width2×length×0.5.
Then, tumor volumes were examined. […] Then, tumor volumes were examined.

[9] = Solubility/yield of SOCS3 recombinant proteins expressed and purified from E. coli; format: physicochemical
Experimental: Thereafter, the recombinant protein gene-introduced E. coli was inoculated in 7 ml of LB medium, and then incubated at 37° C. overnight. The E. coli was inoculated in 700 ml of LB medium and incubated at 37° C. until OD600 reached 0.6. To this culture medium, 0.6 mM of isopropyl-β-D-thiogalactoside (IPTG, Gen Depot, USA) was added as a protein expression inducer, followed by further incubation at 37° C. for 3 hours. This culture medium was centrifuged at 4° C. and 8,000 rpm for 10 minutes and a supernatant was discarded to recover a cell pellet. The cell pellet thus recovered was suspended in a lysis buffer (100 mM NaH2PO4, 10 mM Tris-HCl, 8 M Urea, pH 8.0), and cells were disrupted by sonication (on/off time: 30 sec/30 sec, on time 2 hours, amplify 40%), and centrifuged at 15,000 rpm for 30 min to obtain a soluble fraction and an insoluble fraction.
After purification, the proteins were put in a SnakeSkin Dialysis Tubing bag (pore size: 10000 mw, Thermo scientific, USA) and then they were dialyzed by physiological buffer (DMEM). The strain lysate where protein expression was not induced, the strain lysate where protein expression was induced by addition of IPTG, and purified proteins were loaded on SDS-PAGE to analyze protein expression characteristics and expression levels (FIGS. 19 and 20).
Solubility of aMTD/SD-fused SOCS3 proteins was scored on a 5 point scale compared with that of SOCS3 proteins lacking the solubilization domain.

[10] = test system: RAW 264.7 cells; assay: Cell-permeability of FITC-labeled SOCS3 recombinant proteins (flow cytometry); format: cell-based; details: 10 μM FITC-labeled protein, 1 hr, 37° C.
Experimental: (§3) To examine cell-permeability of SOCS3 recombinant protein, SOCS3 recombinant proteins were conjugated to 5/6-fluorescein isothiocyanate (FITC). RAW 264.7 (KCLB, Seoul, South Korea) (FIG. 20) or NIH3T3 cells (KCLB, Seoul, South Korea) (FIG. 21) were treated with 10 μM FITC-labeled SOCS3 recombinant proteins and cultivated for 1 hr at 37° C.
In this regard, RAW 264.7 cells were cultured in a DMEM medium containing 10% fetal bovine serum (FBS, Hyclone, USA) and […] of 1% penicillin/streptomycin (Hyclone, USA).
(§4) After cultivation, the cells were washed three times with ice-cold PBS (Phosphate-buffered saline, Hyclone, USA) and treated with proteinase K (10 μg/mL, SIGMA, USA) to remove surface-bound proteins, and internalized proteins were measured by flow cytometry (FlowJo cytometric analysis software, Guava, Millipore, Darmstadt, Germany). Untreated cells (gray) and equimolar concentration of unconjugated FITC (FITC only, green)-treated cells were served as control (FIG. 20). Each of NIH3T3 cells was incubated for 1 hour at 37° C. with 10 μM FITC-labeled SOCS3 protein. For nuclear staining, a mixture of […] Mounting Medium (Vector laboratories, Burlingame, Calif.) and DAPI (4′,6-diamidino-2-phenylindole) was added to NIH3T3 cells, and visualized using a confocal laser microscope (LSM700, Zeiss, Germany) (FIG. 21).

[11] = test system: NIH3T3 cells; assay: Intracellular delivery and localization of FITC-labeled SOCS3 recombinant proteins (confocal microscopy); format: cell-based, mouse; details: 10 μM FITC-labeled SOCS3 protein, 1 hour, 37° C.
Experimental: as §3, §4

[12] = test system: STAT1; assay: Inhibition of IFN-γ-induced STAT phosphorylation in PANC-1 cells (western blot), STAT1; format: cell-based; details: PANC-1, 10 ng/ml IFN-γ 15 min, 10 μM protein 2 hrs
Experimental: (§5) PANC-1 Cells (KCLB, Seoul, South Korea) were treated with 10 ng/ml IFN-γ (R&D systems, Abingdon, UK) for 15 min and treated with either DMEM (vehicle) or 10 μM aMTD/SD-fused SOCS3 recombinant proteins for 2 hrs. The cells were lysed in RIPA lysis buffer (Biosesang, Seongnam, Korea) containing proteinase inhibitor cocktail (Roche, Indianapolis, Ind., USA), incubated for 15 min at 4° C., and centrifuged at 13,000 rpm for 10 min at 4° C. Equal amounts of lysates were separated on 10% SDS-PAGE gels and transferred to a nitrocellulose membrane. The membranes were blocked using 5% skim milk in TBST and for western blot analysis incubated with the following antibodies: anti-phospho-STAT1 (Cell Signaling Technology, USA) and anti-phospho-STAT3 (Cell Signaling Technology, USA), then HRP conjugated anti-rabbit secondary antibody (Santacruz).

[13] = test system: STAT3; assay: Inhibition of IFN-γ-induced STAT phosphorylation in PANC-1 cells (western blot), STAT3; format: cell-based; details: PANC-1, 10 ng/ml IFN-γ 15 min, 10 μM protein 2 hrs
Experimental: as §5
as §5, with “(vehicle) or 1, 5, 10 μM” for “(vehicle) or 10 μM”, “following antibodies: anti-phospho-STAT3 (Cell” for “following antibodies: anti-phospho-STAT1 (Cell Signaling Technology, USA) and anti-phospho-STAT3 (Cell”

[14] = test system: TNF-α; assay: LPS/IFN-γ-induced cytokine secretion in peritoneal macrophages (cytometric bead array), TNF-α; format: cell-based, C3H/HeJ mice; details: 10 μM protein; IFN-γ and LPS
Experimental: (§6) Peritoneal macrophages were obtained from C3H/HeJ mice (Doo-Yeol Biotech Co. Ltd. Korea) Peritoneal macrophages were incubated with 10 μM SOCS3 recombinant proteins (1:HS3, 2:HM165S3, 3:HM165S3A and 4:HM165S3B, respectively) for 1 hr at 37° C. and then stimulated them with LPS (Lipopolysaccharide)(500 ng/ml) and/or IFN-γ (100 U/ml) without removing iCP-SOCS3 proteins for 3, 6, or 9 hrs. The culture media were collected, and the extracellular levels of cytokine (TNF-α, IL-6) were measured by a cytometric bead array (BD Pharmingen, San Diego, Calif., USA) according to the manufacturer's instructions.

[15] = test system: IL-6; assay: LPS/IFN-γ-induced cytokine secretion in peritoneal macrophages (cytometric bead array), IL-6; format: cell-based, C3H/HeJ mice; details: 10 μM protein; IFN-γ and LPS
Experimental: as §6

[16] = test system: HepG2 cells; assay: Cell-permeability of FITC-labeled SOCS3 recombinant proteins in hepatocellular carcinoma cells (flow cytometry); format: cell-based, human; details: 10 μM FITC-labeled protein, 1 hr, 37° C.
Experimental: HepG2 cells (ATCC, Manassas, Va., USA) were seeded in a 12 well plate, grown to 90% confluence. Cells were treated with 10 μM FITC-labeled iCP-SOCS3 recombinant proteins and cultivated for 1 hr at 37° C.
After cultivation, the cells were treated with proteinase K (10 ug/mL, SIGMA, USA) and washed three times with ice-cold PBS (Phosphate-buffered saline, Hyclone, USA) to remove surface-bound proteins, and internalized proteins were measured by flow cytometry (FlowJo cytometric analysis software, Guava, Millipore, Darmstadt, Germany). Untreated cells (gray) and equimolar concentration of unconjugated FITC (FITC only, green)-treated cells were served as control (FIG. 57).

[17] = test system: AGS cells; assay: Induction of apoptosis by Annexin V/7-AAD staining in gastric carcinoma cells; format: cell-based; details: 10 uM, 14 hours
Experimental: as §1

O=c1[nH]cc(F)c(=O)[nH]1 [5-FU, reference compound]
induction of apoptosis (Annexin V), HepG2 ([1]; example 20-2): hardly induced apoptosis | induction of apoptosis (Annexin V), Hep3B [2]: hardly induced apoptosis | induction of apoptosis (Annexin V), Huh7 [3]: hardly induced apoptosis | induction of apoptosis (Annexin V), SK-HEP-1 [4]: hardly induced apoptosis | amount of subG1 [5]: hardly increased the amount of subG1 | IC50 [6]: 40 µM

N.N.[Cl][Pt][Cl] [Cisplatin, reference compound]
induction of apoptosis (Annexin V), HepG2, dose dependence ([1]; example 20-1): hardly induced apoptosis | induction of apoptosis (TUNEL), Huh7 [7]: hardly induced apoptosis | amount of subG1 [5]: hardly increased the amount of subG1 | IC50 [6]: 30 µM | body weight / adverse effects [8]: remarkable weight loss

HS3: His-tagged SOCS3 recombinant protein lacking an aMTD and a SD [reference compound]
solubility (tendency to precipitate) ([9]; expressed and purified in E. coli): largely insoluble; also recorded: less soluble | cell-permeability (protein uptake) [10]: did not appear to enter cells | intracellular delivery and localization [11]: did not appear to enter cells | IFN-γ-induced phosphorylation of STAT1 [12]: STAT phosphorylation was readily detected | IFN-γ-induced phosphorylation of STAT3 [13]: STAT phosphorylation was readily detected | effect on TNF-α secretion [14]: unchanged | effect on IL-6 secretion [15]: unchanged | transduction into HepG2 cells [16]: did not appear to enter cells

B1: M165S3B: his-tag-removed aMTD165-SOCS3-SDB recombinant protein (protein)
chain: ALAVPVALAIVPVTHSKFPAAGMSRPLDTSLRLKTFSSKSEYQLVVNAVRKLQESGFYWSAVTGGEANLLLSAEPAGTFLIRDSSDQRHFFTLSVKTQSGTKNLRIQCEGGSFSLQSDPRSTQPVPRFDCVLKLVHHYMPPPGAPSFPSPPTEPSSEVPEQPSAQPLPGSPPRRAYYIYSGGEKIPLVLSRPLSSNVATLQHLCRKTVNGHLDSYEKVTQLPGPIREFLDQYDAPLMAEQSDKDVKYYTLEEIQKHKDSKSTWLILHHKVYDLTKFLEEHPGGEEVLGEQAGGDATENFEDVGHSTDARELSKTYIIGELHPDDRSKIAKPSETL
modifications: Amino acid sequence of E.coli codon usage optimized M165S3B′
notes: his-tag-removed aMTD165-SOCS3-SDB recombinant protein
solubility/yield [9]: high solubility/yield | cell-permeability (protein uptake) [10]: high cell permeability | induction of apoptosis (Annexin V) [17]: showed high anticancer efficacy; also recorded: efficacy equivalent to or higher than HM165S3B
